Data taken from patent US8912188B2, “Substituted quinoxaline carboxylic acids for the inhibition of PASK” (BioEnergenix, LLC, priority 2011, dated 2014).

How the values were obtained:
PASK (Invitrogen) = biological target: T1, PASK (Invitrogen) (Homo sapiens, UniProt Q96RG2); test: PAS Kinase FRET Assay; assay type: biochemical; details: PAS kinase TR-FRET assay (665 nm/615 nm), 2 hours at 25° C.; read-out: IC50 Kinase Domain
T1 construct: IC50 Kinase Domain; purchased Invitrogen
From the text: (§1) Biochemical Assay for hPASK Activity
The aim of the FRET assay is to determine the inhibition potential of test compounds on targeted kinase. This assay platform provides a homogenous screening method for measuring kinase activity by quantitating the amount of phospho-substrate in solution following a kinase reaction.
In the presence of kinase and ATP, the Ulight-peptide is phosphorylated and captured by an anti-phospho-substrate antibody, which brings the Eu chelate donor and Ulight acceptor dyes into close proximity.
Titration of kinase at 1 mM ATP was achieved via the following protocol. […] The contents of the plate were incubated at RT for 1 h. The reaction was stopped by adding 5 μl of stop solution to each test well followed by mixing and incubation at RT for 10 minutes. 5 μl of detection mix (detection antibody diluted in detection buffer) was added; the contents of the plate were mixed and then incubated in the dark for 1 hour at RT. […] The results were graphed to calculate the EC50.
Titration of ATP at the EC50 concentration of kinase to determine ATP Km,app. was performed using the following method. […] The contents of the plate were and incubated at RT for 1 h. The reaction was stopped by adding 5 μl of stop solution to each test well followed by mixing and incubation at RT for 10 minutes. […] (detection antibody diluted in detection buffer) was added; the contents of the plate were mixed and then incubated in the dark for 1 hour at RT. […] The results were graphed to calculate the EC50 as the ATP Km,app.
Compound screening was done via the following method. 10 mM stock solution of test compound in DMSO was prepared by dissolving test compound in DMSO at RT for 1 hour, and then sonicating at 100% output for 8 minutes. If compound is not soluble under this condition, it was diluted to 3 mM. Kinase reaction buffer was prepared containing 10 mM MgCl2, 50 mM HEPES, 1 mM EGTA, 0.01% TWEEN-20, 2 mM DTT. […] As a positive control, 2.5 μl of positive compound was added to assay wells, and 2.5 μl of DMSO to assay wells as vehicle control. Kinase solution was prepared in reaction buffer at 2× final assay concentration. Kinase solution (5 μl) was added to each well of the assay plate. The substrate and ATP solution was prepared in kinase reaction buffer at 4× final assay concentration. The kinase reaction was started by adding 2.5 μl of substrate+ATP mix solution to each well of the assay plate. The plate is mixed on a plate shaker; then covered and allowed to react for 2 hours in the dark at 25° C. without shaking. The reaction was stopped by adding 5 μl of stop solution to each test well followed by mixing and incubation at RT for 10 minutes in the dark. 5 μl of detection mix (detection antibody diluted in detection buffer) was added; the contents of the plate were mixed and then incubated in the dark for 1 hour at RT.

PASK = biological target: T2, PASK (UniProt #Q96RG2; human recombinant N-terminal GST tagged construct, residues 879-1323) (Homo sapiens, UniProt Q96RG2); test: PASK ATP Radiochemical Assay; assay type: biochemical; details: 33P-ATP, Myelin Basic Protein substrate, 120 min at room temperature, read-out: IC50 Kinase Domain
T2 construct: human recombinant N-terminal GST tagged construct, residues 879-1323; GST (N); host or cells: insect cells
Description: as §1
PASK ATP Radiochemical Assay
Test compounds in DMSO are then added and the mixture, followed by delivery of ^33P-ATP (specific activity 0.01 μCi/μl final) to initiate the reaction. […] The entire reaction mixture is washed through onto a P81 Phosphocellulose paper and washed three times for 10 minutes in 75 mM phosphoric acid and once in methanol prior to drying and scintillation counting.

T2 sequence (Q96RG2 879-1323, stated change not applied): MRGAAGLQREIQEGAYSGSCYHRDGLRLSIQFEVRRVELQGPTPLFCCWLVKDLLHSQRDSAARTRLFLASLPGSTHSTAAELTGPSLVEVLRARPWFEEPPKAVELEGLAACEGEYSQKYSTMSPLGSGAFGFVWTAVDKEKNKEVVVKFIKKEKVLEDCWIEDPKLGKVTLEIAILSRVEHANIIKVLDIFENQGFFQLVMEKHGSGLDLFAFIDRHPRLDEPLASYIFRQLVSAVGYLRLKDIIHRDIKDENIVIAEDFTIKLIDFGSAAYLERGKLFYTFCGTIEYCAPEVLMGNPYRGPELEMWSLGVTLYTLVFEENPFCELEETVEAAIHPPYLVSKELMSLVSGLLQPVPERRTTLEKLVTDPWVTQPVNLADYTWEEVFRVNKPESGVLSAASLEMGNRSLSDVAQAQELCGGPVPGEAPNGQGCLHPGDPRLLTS
T1 sequence (Q96RG2 999-1251 limits assumed): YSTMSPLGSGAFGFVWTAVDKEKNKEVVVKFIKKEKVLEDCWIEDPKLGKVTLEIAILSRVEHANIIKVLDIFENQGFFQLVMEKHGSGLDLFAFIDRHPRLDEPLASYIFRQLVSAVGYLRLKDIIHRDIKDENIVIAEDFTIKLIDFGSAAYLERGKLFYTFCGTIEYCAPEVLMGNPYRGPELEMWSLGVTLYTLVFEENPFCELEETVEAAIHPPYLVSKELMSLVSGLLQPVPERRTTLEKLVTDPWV

| SMILES | IC50 (PASK (Invitrogen)) [µM] | IC50 (PASK) [µM] |
| --- | --- | --- |
| CC(C)N(C)c1nc2cc(C(=O)O)ccc2nc1-c1cc2cc(Cl)ccc2o1 [Example 19, 2-(5-Chlorobenzofuran-2-yl)-3-(isopropyl(methyl)amino)quinoxaline-6-carboxylic acid] | < 10 | < 10 |
| CC(C)N(C)c1nc2cc(C(=O)O)ccc2nc1-c1ccc2c(c1)CCCO2 [Example 21, 2-(Chroman-6-yl)-3-(isopropyl(methyl)amino)quinoxaline-6-carboxylic acid] | < 10 | < 10 |
| CC(C)N(C)c1nc2cc(C(=O)O)ccc2nc1-c1cc2ccccc2s1 [Example 23, 2-(Benzo[b]thiophen-2-yl)-3-(isopropyl(methyl)amino)quinoxaline-6-carboxylic acid] | < 10 | < 10 |
| Cc1ccccc1N(C)c1nc2cc(C(=O)O)ccc2nc1-c1ccc(F)cc1 [Example 109, 2-(4-Fluorophenyl)-3-(methyl(o-tolyl)amino)quinoxaline-6-carboxylic acid] | < 10 | – |
| CC(C)(C)Nc1nc2cc(C(=O)O)ccc2nc1-c1ccc(F)cc1 [Example 110, 3-(tert-Butylamino)-2-(4-fluorophenyl)quinoxaline-6-carboxylic acid] | < 10 | – |
| C[C@H]1CNCCN1c1nc2cc(C(=O)O)ccc2nc1-c1ccc(F)cc1 [Example 114, 2-(4-Fluorophenyl)-3-[(2S)-2-methylpiperazin-1-yl]quinoxaline-6-carboxylic acid] | < 10 | – |
| Cc1cc(F)ccc1-c1nc2ccc(C(=O)O)cc2nc1N1CCC[C@@H]1C [Example 117, (S)-2-(4-Fluoro-2-methylphenyl)-3-(2-methylpyrrolidin-1-yl)quinoxaline-6-carboxylic acid] | < 10 | – |
| Cc1cc(F)ccc1-c1nc2ccc(C(=O)O)cc2nc1N(C)C(C)C [Example 118, 2-(4-Fluoro-2-methylphenyl)-3-(isopropyl(methyl)amino)quinoxaline-6-carboxylic acid] | < 10 | – |
| CC(C)N(C)c1nc2cc(C(=O)O)ccc2nc1-c1ccc(C(N)=O)cc1 [Example 119, 2-(4-Carbamoylphenyl)-3-(isopropyl(methyl)amino)quinoxaline-6-carboxylic acid] | < 10 | – |
| COc1cc2nc(-c3ccc(F)cc3)c(N(C)C(C)C)nc2cc1C(=O)O [Example 122, 2-(4-Fluorophenyl)-7-methoxy-3-[methyl(propan-2-yl)amino]quinoxaline-6-carboxylic acid] | > 10 | – |
| CC(C)N(C)c1nc2cc(C(=O)O)c(F)cc2nc1-c1ccc(F)cc1 [Example 123, 7-Fluoro-2-(4-fluorophenyl)-3-[methyl(propan-2-yl)amino]quinoxaline-6-carboxylic acid] | < 10 | – |
| CN(CC(F)(F)F)c1nc2cc(C(=O)O)ccc2nc1-c1ccc(F)cc1 [Example 124, 2-(4-Fluorophenyl)-3-[methyl(2,2,2-trifluoroethyl)amino]quinoxaline-6-carboxylic acid] | < 10 | – |
| CN(c1nc2cc(C(=O)O)ccc2nc1-c1ccc(F)cc1)[C@H]1CC[C@H](O)CC1 [Example 125, 2-(4-Fluorophenyl)-3-(((1r,4r)-4-hydroxycyclohexyl)(methyl)amino)quinoxaline-6-carboxylic acid] | < 10 | – |
| CN[C@H]1CC[C@H](N(C)c2nc3cc(C(=O)O)ccc3nc2-c2ccc(F)cc2)CC1 [Example 126, 2-(4-Fluorophenyl)-3-(methyl((1r,4r)-4-(methylamino)cyclohexyl)amino)quinoxaline-6-carboxylic acid] | < 10 | – |
| CC(=O)N[C@H]1CC[C@H](N(C)c2nc3cc(C(=O)O)ccc3nc2-c2ccc(F)cc2)CC1 [Example 127, 3-(((1r,4r)-4-Acetamidocyclohexyl)(methyl)amino)-2-(4-fluorophenyl)quinoxaline-6-carboxylic acid] | < 10 | – |
| CC(=O)N1CCN(c2nc3cc(C(=O)O)ccc3nc2-c2ccc(F)cc2)CC1 [Example 128, 3-(4-Acetylpiperazin-1-yl)-2-(4-fluorophenyl)quinoxaline-6-carboxylic acid] | < 10 | – |

| SMILES | IC50 (PASK (Invitrogen)) [µM] | IC50 (PASK) [µM] |
| --- | --- | --- |
| O=C(O)c1ccc2nc(-c3ccc(F)cc3)c(N3CCN(C(=O)c4ccccc4)CC3)nc2c1 [Example 129, 3-(4-Benzoylpiperazin-1-yl)-2-(4-fluorophenyl)quinoxaline-6-carboxylic acid] | < 10 | – |
| CS(=O)(=O)N1CCN(c2nc3cc(C(=O)O)ccc3nc2-c2ccc(F)cc2)CC1 [Example 130, 2-(4-Fluorophenyl)-3-(4-(methylsulfonyl)piperazin-1-yl)quinoxaline-6-carboxylic acid] | < 10 | – |
| O=C(O)c1ccc2nc(-c3ccc(F)cc3)c(N3CCC(c4ccccn4)CC3)nc2c1 [Example 131, 2-(4-Fluorophenyl)-3-[4-(pyridin-2-yl)piperidin-1-yl]quinoxaline-6-carboxylic acid] | < 10 | – |
| C[C@H]1CCCN1c1nc2cc(C(=O)O)c(O)cc2nc1-c1ccc(F)cc1 [Example 132, (S)-2-(4-Fluorophenyl)-7-hydroxy-3-(2-methylpyrrolidin-1-yl)quinoxaline-6-carboxylic acid] | < 10 | – |
| CN(Cc1ccccc1)c1nc2cc(C(=O)O)ccc2nc1-c1ccc(F)cc1 [Example 133, 3-[Benzyl(methyl)amino]-2-(4-fluorophenyl)quinoxaline-6-carboxylic acid] | < 10 | – |
| CN(Cc1ccccn1)c1nc2cc(C(=O)O)ccc2nc1-c1ccc(F)cc1 [Example 134, 2-(4-Fluorophenyl)-3-[methyl(pyridin-2-ylmethyl)amino]quinoxaline-6-carboxylic acid] | < 10 | – |
| CC(C)N(C)c1nc2cc(C(=O)O)ccc2nc1-c1ccc(C(F)(F)F)cc1 [Example 136, 3-(Isopropyl(methyl)amino)-2-(4-(trifluoromethyl)phenyl)quinoxaline-6-carboxylic acid] | < 10 | – |
| CCN1CCC(N(C)c2nc3cc(C(=O)O)ccc3nc2-c2ccc(F)cc2)CC1 [Example 137, 3-[(1-Ethylpiperidin-4-yl)(methyl)amino]-2-(4-fluorophenyl)quinoxaline-6-carboxylic acid] | < 10 | – |
| CCN1CCN(c2nc3cc(C(=O)O)ccc3nc2-c2ccc(F)cc2)[C@@H](C)C1 [Example 138, (S)-3-(4-Ethyl-2-methylpiperazin-1-yl)-2-(4-fluorophenyl)quinoxaline-6-carboxylic acid] | < 10 | – |
| CCCN(CC)c1nc2cc(C(=O)O)ccc2nc1-c1ccc(F)cc1 [Example 139, 3-[Ethyl(propyl)amino]-2-(4-fluorophenyl)quinoxaline-6-carboxylic acid] | < 10 | – |
| CC(C)CN(C)c1nc2cc(C(=O)O)ccc2nc1-c1ccc(F)cc1 [Example 141, 2-(4-Fluorophenyl)-3-(isobutyl(methyl)amino)quinoxaline-6-carboxylic acid] | < 10 | – |
| CCC1CCCCN1c1nc2cc(C(=O)O)ccc2nc1-c1ccc(F)cc1 (stereo not shown) [Example 142, 3-(2-Ethylpiperidin-1-yl)-2-(4-fluorophenyl)quinoxaline-6-carboxylic acid] | < 10 | – |
| C[C@@H](c1ccccc1)N(C)c1nc2cc(C(=O)O)ccc2nc1-c1ccc(F)cc1 [Example 143, (S)-2-(4-Fluorophenyl)-3-(methyl(1-phenylethyl)amino)quinoxaline-6-carboxylic acid] | < 10 | – |
| O=C(O)c1ccc2nc(-c3ccc(F)cc3)c(N3CCCC3)nc2c1 [Example 144, 2-(4-Fluorophenyl)-3-(pyrrolidin-1-yl)quinoxaline-6-carboxylic acid] | < 10 | – |
| O=C(O)c1ccc2nc(-c3ccc(F)cc3)c(N3CCC3)nc2c1 [Example 145, 3-(Azetidin-1-yl)-2-(4-fluorophenyl)quinoxaline-6-carboxylic acid] | < 10 | – |
